Experiments:
[1] = biological target: T1, PIN1-CD (catalytic peptidyl-prolyl isomerase domain, devoid of the PIN1 WW domain) (Homo sapiens, UniProt Q13526); assay: Pin1 peptidyl-prolyl isomerase assay (protease-coupled, spectrophotometric); type: biochemical; conditions: catalytic PPIase domain without WW domain; 15° C., pH 7.5, 100 μM Suc-AEPF-pNA
T1 construct: PIN1 peptide containing the catalytic peptidyl-prolyl isomerase domain but devoid of the PIN1 WW domain
Excerpt: PIN1 is a phosphorylation dependent peptidyl-prolyl isomerase. The PIN1 assay is a spectrophotometric assay based on the coupled chymotrypsin or subtilisin catalyzed, cis-trans conformation dependent cleavage of a para-nitroanaline containing peptide substrate. […] Cleavage of the isomerized peptide releases para-nitroanaline, which can be monitored by an increase in absorbance at 390 nm. The PIN1 peptide substrate, succinyl-[…]-proline-phenylalanine-paranitroaniline (Suc-AEPF-pNA) (Bachem), is kept in a predominantly cis conformation with an anhydrous TFE/LiCl solvent mixture.
Upon dilution into an aqueous assay mixture containing PIN1, the peptide substrate undergoes PIN1 catalyzed isomerization to the trans conformation. […] To minimize the spontaneous isomerization of the peptide substrate, reactions are performed at 15° C. A typical reaction contains 25 mM MOPS pH 7.5, 0.5 mM TCEP, 2% DMSO, 5 μl of a 25 mg/ml solution of subtilisin Carlsberg, 50 nM PIN1-PPiase, and 100 μM Suc-AEPF-pNA peptide substrate. Reactions are cooled to 15° C. and initiated with the addition of Suc-AEPF-pNA. The absorbance at 390 nm is monitored continuously until all substrate has been converted to the cleaved product. […] The rate constant k is linearly proportional to the concentration of active enzyme present in the assay mixture once the rate constant for the spontaneous isomerization is subtracted. […] Therefore, during inhibition experiments, the IC50, for non-tight binding inhibitors, is essentially the inhibition constant Ki.
(§1) In Table 1, the Ki data reported under the PIN1—CD heading corresponds to testing with PIN1 peptide containing the catalytic peptidyl-prolyl isomerase domain but devoid of the PIN1 WW domain. Similarly, the dissociation constant (Kd) data under PIN1-CD refers to testing with a peptide containing the catalytic PIN1 domain but devoid of the PIN1 WW domain.

[2] = biological target: T2, PIN1-CD (catalytic PIN1 domain, devoid of the PIN1 WW domain) (Homo sapiens, UniProt Q13526); assay: Dissociation constant (Kd) with PIN1 catalytic domain; type: binding; conditions: peptide containing the catalytic PIN1 domain
T2 construct: PIN1 peptide containing the catalytic peptidyl-prolyl isomerase domain but devoid of the PIN1 WW domain
T2 sequence (Q13526 52-163 limits assumed): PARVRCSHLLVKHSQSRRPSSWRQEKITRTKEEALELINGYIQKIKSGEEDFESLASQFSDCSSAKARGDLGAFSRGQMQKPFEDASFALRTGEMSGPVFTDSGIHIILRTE
Excerpt: as §1

T1 sequence (Q13526 52-163 limits assumed): as above

Compound | Ki [1] [nM] | Kd [2] [nM]
O=P(O)(O)OC[C@@H](Cc1ccccc1)NS(=O)(=O)N1CCCC[C@H]1c1nnc(Cc2ccccc2)o1 [Example 5b5, Phosphoric acid mono-{(R)-2-[(S)-2-(5-benzyl-[1,3,4]oxadiazol-2-yl)-piperidine-1-sulfonylamino]-3-phenyl-propyl}ester] | < 10000 | < 10000
CC(C)(C)C(=O)N[C@@H](COP(=O)(O)O)Cc1cccc(F)c1 [Example 25-30, Phosphoric acid mono-[(R)-2-(2,2dimethyl-propanoylamino)-3-(3-fluoro-phenyl)-propyl]ester] | < 1000 | < 1000
O=C(N[C@H](CCc1ccccc1)COP(=O)(O)O)c1ccc2ccccc2c1 [Example 37, Phosphoric acid mono-{2-[(1-naphthalen-2-yl-methanoyl)-amino]-4-phenyl-butyl}ester] | < 10000 | < 2000
O=C(N[C@@H](COP(=O)(O)O)Cc1cccc(F)c1)c1ccc2ccccc2c1Br [Example 25-31, Phosphoric acid mono-[(R)-2-{[1-(1-bromo-naphthalen-2-yl)-methanoyl]-amino}-3-(3-fluoro-phenyl)-propyl]ester] | < 1000 | < 1000
O=C(O[C@@H](COP(=O)(O)O)Cc1cccc(F)c1)c1ccc2ccccc2c1 [Example 74, Naphthalene-2-carboxylic acid (R)-1-(3-fluoro-benzyl)-2-phosphonooxy-ethyl ester] | < 1000 | < 1000
O=C(O)[C@@H]1CCCCN1S(=O)(=O)N[C@@H](COP(=O)(O)O)Cc1ccccc1 [Example 5b2, 1-(2-Phenyl-1-phosphonooxymethyl-ethylsulfamoyl)-piperidine-2-carboxylic acid] | < 10000 | < 10000
O=C(O[C@@H](COP(=O)(O)O)Cc1cccc(F)c1)c1cc2ccccc2s1 [Example 54] | < 1000 | < 1000
O=C(O[C@@H](COP(=O)(O)O)Cc1ccccc1)c1ccc2ccccc2c1 [Example 49, Naphthalene-2-carboxylic acid (R)-2-phenyl-1-phosphonooxymethyl-ethyl ester] | < 1000 | < 1000
O=C(OCCCCc1ccccc1)[C@@H]1CCCCN1S(=O)(=O)N[C@@H](COP(=O)(O)O)Cc1ccccc1 [Example 5b1, 1-(2-Phenyl-1-phosphonooxymethyl-ethylsulfamoyl)-piperidine-2S-carboxylic acid 4-phenyl-butyl ester] | < 10000 | < 10000
COc1ccc2cc(C(=O)N[C@@H](COP(=O)(O)O)Cc3cccc(F)c3)ccc2c1 [Example 25-32, Phosphoric acid mono-((R)-3-(3-fluoro-phenyl)-2-{[1-(6-methoxy-naphthalen-2-yl)-methanoyl]-amino}-propyl)ester] | < 1000 | < 1000
CC(C)(C)OC(=O)N[C@@H](COP(=O)(O)O)Cc1cccnc1 [Example 30, (1-Phosphonooxymethyl-2-pyridin-3-yl-ethyl)-carbamic acid tert-butyl ester] | < 100000 | < 10000
O=C(O)[C@@H]1CCCCN1C(=O)N[C@@H](COP(=O)(O)O)Cc1ccccc1 [Example 16d, 1-(2-Phenyl-1-phosphonooxymethyl-ethylcarbamoyl)-piperidine-2-carboxylic acid] | < 10000 | < 10000
O=C(N[C@@H](COP(=O)(O)O)Cc1ccccc1)c1ccc2[nH]cnc2c1 [Example 25-23, Phosphoric acid mono-{(R)-2-[(1H-benzoimidazole-5-carbonyl)-amino]-3-phenyl-propyl}ester] | < 1000 | < 1000
Cc1cccc(C[C@H](COP(=O)(O)O)NC(=O)c2ccc3ccccc3c2Br)c1 [Example 25-34, Phosphoric acid mono-((R)-2-{[1-(1-bromo-naphthalen-2-yl)-methanoyl]-amino}-3-m-tolyl-propyl)ester] | < 1000 | < 1000
COc1ccc2cc(C(=O)N[C@@H](COP(=O)(O)O)Cc3cccc(C)c3)ccc2c1 [Example 25-35, Phosphoric acid mono-((R)-2-{[1-(6-methoxy-naphthalen-2-yl)-methanoyl]-amino}-3-m-tolyl-propyl)ester] | < 1000 | < 1000
O=C(N[C@@H](COP(=O)(O)O)Cc1ccccc1)c1cccc(Cl)c1 [Example 25-8, Phosphoric acid mono-(2-{[1-(3-chloro-phenyl)-methanoyl]-amino}-3-phenyl-propyl) ester] | < 1000 | –
